We go through 1 substance from patent US8067015B2, “Methods and compositions for the treatment and prevention of Staphylococcus and other bacterial infections” (priority 1997, dated 2011).

Like-named read-outs stand apart in the source and are kept apart here. Where no end group is shown, it is not given here.

Test [1] relates to S. epidermidis MRSE strain. Briefly: Rat subcutaneous Dacron graft infection model, MRSE strain. Type of test: in vivo. The note with it: for Bacterial concentration, MRSE: 2×10^7 bacteria, explanted day 7; for Bacterial concentration, MRSE / Bacterial load on graft, MRSE: mean ± SD; for Bacterial load on graft, MRSE: Table 3A S. epidermidis. As to the method: (§1) Rats (Wistar adult males (300-350 g), n=15/experimental group) were anaesthetized, hair on their back shaved and the skin cleansed with 10% povidone-iodine solution. A subcutaneous pocket was made on the side of the median line by a 1.5 cm incision. Aseptically, 1 cm^2 sterile collagen-sealed Dacron graft (Albograft™, Sorin Biomedica Cardio, S.p.A., Saluggi VC, Italy) was implanted into the pocket. […] Pockets were closed by skin clips and 1 ml sterile saline solution with or without 2×10^7 bacteria was inoculated onto the graft surface using a tuberculin syringe to create a subcutaneous fluid-filled pocket. Some of the animals that had grafts soaked only with RIP or saline were injected intraperitoneally with antibiotics (cefazolin 30 mg/kg, imipenem 30 mg/kg, teicoplanin 10 mg/kg, levofloxacin 10 mg/kg). Grafts were explanted 7 days following implantation.
(§2) The explanted grafts were placed in sterile tubes, washed in sterile saline solution, placed in tubes containing 10 ml of phosphate-buffered saline solution and sonicated for 5 min to remove the adherent bacteria from the grafts. Quantitation of viable bacteria was performed by culturing serial 10-fold dilutions (0.1 ml) of the bacterial suspension on blood agar plates. All plates were incubated at 37° C. for 48 hr and evaluated for the presence of the strain. Bacteria were quantitated by counting the number of colony forming unites (CFU) per plate. To determine if bacteria were efficiently removed from the graft, washed and sonicated grafts were observed under a Nikon Eclipse E 600 optical microscope (Nikon Y-THS, Japan).
Quantitative culture results of the in vivo experiments were presented as mean+SD of the mean. Comparisons of the results were performed by the analysis of variance (ANOVA) on the log-transformed data. Statistical analysis was performed for in vitro adhesion assays using Student's t-Test by Microsoft Excel (Microsoft, Wash.). Significance was accepted when the P value was <0.05.
To test if RIP can prevent graft-associated infections, Dacron grafts were coated with or without RIP, and with or without various types of antibiotics (for local prophylaxis experiments). Coated grafts were implanted in rats, bacteria injected into the implants, implants removed after a week, and bacterial load determined. Alternatively, Dacron grafts were first coated with RIP, bacteria injected, and antibiotics were administered by the intraperitoneal route (for parenteral prophylaxis experiments). As a negative control, grafts were implanted without local or parenteral RIP/antibiotics prophylaxis and no bacteria were injected. As a positive control, grafts were implanted, bacteria were injected, but no RIP/antibiotics prophylaxis was given.
(§3) Animals (15/group) received a Dacron-graft implanted in a subcutaneous pocket. Graft was subsequently infected with either S. epidermidis (tested on MSSE, MRSE and GISE) or with S. aureus (tested on MSSA, MRSA and GISA). The Dacron-graft prior to implantation was soaked in saline with or without 20 mg/l of RIP and some animals received […] of RIP i.p. as a prophylaxis treatment.

For the next test, the system named is S. aureus GISA. Briefly: Rat subcutaneous Dacron graft infection model, GISA strain. Type of test: in vivo. The note with it: Table 3B S. aureus, mean ± SD. Here is the method: as §1, with “implantation. Estimated RIP that adhered to graft was 10-26 μg.” for “implantation.”
as §2, §3

Another test deals with S. aureus MRSA. Briefly: Rat subcutaneous Dacron graft infection model, MRSA strain. It is filed as in vivo. The note with it: Table 3B S. aureus, mean ± SD. Here is the method: as §1, with “implantation. Estimated RIP that adhered to graft was 10-26 μg.” for “implantation.”
as §2, §3

The next test has as its system S. aureus MSSA. Briefly: Rat subcutaneous Dacron graft infection model, MSSA strain. It is filed as in vivo. The note with it: Table 3B S. aureus, mean ± SD. Here is the method:
as §1, with “implantation. Estimated RIP that adhered to graft was 10-26 μg.” for “implantation.”
as §2, §3

In test [2] the test system is S. epidermidis (all strains tested). Briefly: Rat subcutaneous Dacron graft infection model, all strains tested (GISE, MRSE, MSSE). It is filed as in vivo. The note with it: RIP-coated graft. As to the method: as §1, with “Some of the animals that had grafts soaked only with RIP or saline were injected intraperitoneally with antibiotics (cefazolin 30 mg/kg, imipenem 30 mg/kg, teicoplanin 10 mg/kg, levofloxacin 10 mg/kg). Grafts were explanted 7 days following implantation.” left out
The explanted grafts were placed in sterile tubes, washed in sterile saline solution, placed in tubes containing 10 ml of phosphate-buffered saline solution and sonicated for 5 min to remove the adherent bacteria from the grafts. Quantitation of viable bacteria was performed by culturing serial 10-fold dilutions (0.1 ml) of the bacterial suspension on blood agar plates. All plates were incubated at 37° C. for 48 hr and evaluated for the presence of the strain. Bacteria were quantitated by counting the number of colony forming unites (CFU) per plate. […]
Quantitative culture results of the in vivo experiments were presented as mean+SD of the mean. […]

Another test has as its system TRAP. The note with it: 1 hr. As to the method:
S. aureus (right panel) and S. epidermidis (left panel) were in vivo phosphorylated for 1 hr in the presence or absence of RIP. Total cell homogenate was separated by SDS PAGE and the gel was autoradiographed.
To test for TRAP phosphorylation in S. epidermidis, in vivo phosphorylation assays were carried out as described for S. aureus. Briefly, early exponential S. epidermidis were grown in the presence of phosphate-free buffer supplemented with radiolabeled orthophosphate with or without RIP (10 μg/10^7 cells). After a 1 hr incubation period, the cells were collected by centrifugation, treated with lysostaphin followed by the addition of sample buffer, and total cell homogenate was applied without boiling to 15% SDS PAGE and the gel autoradiographed. The same experiment was carried out on 6390B S. aureus cells as a positive control.

For test [3], the system named is S. epidermidis adherence to polystyrene. Kind of test: Adherence and biofilm formation of S. epidermidis on polystyrene (safranin). The note with it: polystyrene microtiter plates, 3 hrs. Type of test: cell-based. As to the method:
FIG. 14B is a graph depicting adherence in the presence of RIP RIP+ and in the absence of RIP RIP−. S. epidermidis were grown in polystyrene plates for 3 hrs, adherent bacteria were stained by safranin, and absorbance at 490 nm was determined.
To test whether RIP reduces adherence and biofilm formation of S. epidermidis to plastic, early exponential S. epidermidis were grown for 3 hrs in microtiter plates made of polystyrene, and adherent cells were stained with safranin. These experimental conditions allow for biofilm to be formed (as observed by atomic force microscopy, not shown).

The test system of a further test is RNAIII. The note with it: cited from earlier work.
Another test relates to S. aureus LS-1. The note with it: mice; cited from earlier work.
Test [4] relates to S. aureus Newbould 305, AE-1, and environmental infections. The note with it: cows; cited from earlier work.
In test [5] the test system is bacterial adhesion to HEp2 cells. The note with it: cited from earlier work.
Setting [6] is: RIP local (graft soaked in 20 mg/l RIP).
Where [7] appears, read: RIP parenteral (10 mg/l RIP i.p.).

Consider YSPWTNF(—NH2) (YSPWTNF-NH2) [RIP], for which the “Bacterial concentration, MRSE” value is on record as 0.74 ± 0.18 ×10^4 CFU/ml in test [1] (A. Local prophylaxis: graft soaked 20 min in RIP 10 mg/l and/or antibiotic (mupirocin 100, quinupristin-dalfopristin 50, levofloxacin 30, rifampin 5 mg/l), rats) and 0.74 ± 0.18 ×10^4 CFU/ml in test [1] (B. Parenteral prophylaxis: antibiotic intraperitoneally (cefazolin 30, imipenem 30, teicoplanin 10, levofloxacin 10 mg/kg), RIP as 10 mg/l graft soak, rats). The “Bacterial load on graft, MRSE” value in test [1] (setting [6]) is listed as 0.087 ± 0.023 ×10^4 CFU/ml; in test [1] (RIP local + RIP parenteral), 0.00 ± 0 ×10^4 CFU/ml; in test [1] (setting [7]), 0.052 ± 0.017 ×10^4 CFU/ml; in the test on S. aureus MRSA (setting [6]), 0.62 ± 0.21 ×10^4 CFU/ml; in the test with S. aureus MRSA (RIP local + RIP parenteral) it was 0.00 ± 0 ×10^4 CFU/ml; with S. aureus MRSA (setting [7]), 0.29 ± 0.088 ×10^4 CFU/ml. Further, the “Quantitative culture results of explanted graft, MRSE strain” value in test [1] (peptide-soaked/coated Dacron graft (RIP 10 mg/l), no antibiotic, rats, day 7) is reported as 7.4×10^3±1.8×10^3 CFU/ml. For the same substance, the “Bacterial load on graft, GISE” value in the test with S. aureus GISA (setting [6]) was 0.70 ± 0.28 ×10^4 CFU/ml; in the test with S. aureus GISA (RIP local + RIP parenteral), 0.00 ± 0 ×10^4 CFU/ml; in the test on S. aureus GISA (setting [7]), 0.49 ± 0.11 ×10^4 CFU/ml. The “Bacterial load on graft, MSSE” value is 0.55 ± 0.19 ×10^4 CFU/ml in the test with S. aureus MSSA (setting [6]), 0.00 ± 0 ×10^4 CFU/ml in the test with S. aureus MSSA (RIP local + RIP parenteral) and 0.045 ± 0.009 ×10^4 CFU/ml with S. aureus MSSA (setting [7]). Besides, the “Reduction of bacterial load” value in test [2] is 3 log. For the same substance, the TRAP phosphorylation result in the test with TRAP (RIP 10 μg/10^7 cells, S. epidermidis) was “can be inhibited”; in the test on TRAP (in presence or absence of RIP, S. aureus), “inhibits TRAP phosphorylation”. Also, the “Number of cells that adhered to the plastic” value in test [3] is reported as “significantly reduced”. For the same substance, in the test with RNAIII, the “Inhibiting RNAIII in vitro” value is given as “extremely effective”. In addition, the “Suppressing S. aureus infection: septic arthritis” value with S. aureus LS-1 is “extremely effective”. The “Suppressing S. aureus infection: mastitis” value in test [4] was “extremely effective”. The “Bacterial adhesion to eukaryotic cells” value in test [5] was “decreased”.
